The structures appear in SMILES notation.

The source of these data is ChEMBL document CHEMBL1136629, “Amphipathic 3-phenyl-7-propylbenzisoxazoles; human pPaR gamma, delta and alpha agonists” (Bioorg Med Chem Lett, 2003).

Assay [1] addresses T1, Peroxisome proliferator-activated receptor gamma (Homo sapiens, UniProt P37231).
T1 sequence (P37231 whole entry): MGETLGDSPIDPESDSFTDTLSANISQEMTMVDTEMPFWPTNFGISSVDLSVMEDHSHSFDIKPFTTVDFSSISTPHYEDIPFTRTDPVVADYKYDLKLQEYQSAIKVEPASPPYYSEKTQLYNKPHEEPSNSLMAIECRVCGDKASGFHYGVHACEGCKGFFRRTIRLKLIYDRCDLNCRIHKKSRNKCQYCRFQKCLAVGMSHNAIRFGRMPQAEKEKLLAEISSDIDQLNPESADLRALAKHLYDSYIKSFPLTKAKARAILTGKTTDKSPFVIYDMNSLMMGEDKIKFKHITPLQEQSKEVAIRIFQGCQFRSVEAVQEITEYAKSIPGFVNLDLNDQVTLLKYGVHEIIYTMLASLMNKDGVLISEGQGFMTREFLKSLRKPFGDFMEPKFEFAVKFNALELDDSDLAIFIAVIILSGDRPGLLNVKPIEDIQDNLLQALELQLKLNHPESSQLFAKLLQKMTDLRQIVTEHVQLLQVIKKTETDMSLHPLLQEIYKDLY
The assay can be described thus: In vitro binding affinity towards human peroxisome proliferator activated receptor gamma (PPAR gamma).

The target of assay [2] is T2, Peroxisome proliferator-activated receptor alpha (Homo sapiens, UniProt Q07869).
T2 sequence (Q07869 whole entry): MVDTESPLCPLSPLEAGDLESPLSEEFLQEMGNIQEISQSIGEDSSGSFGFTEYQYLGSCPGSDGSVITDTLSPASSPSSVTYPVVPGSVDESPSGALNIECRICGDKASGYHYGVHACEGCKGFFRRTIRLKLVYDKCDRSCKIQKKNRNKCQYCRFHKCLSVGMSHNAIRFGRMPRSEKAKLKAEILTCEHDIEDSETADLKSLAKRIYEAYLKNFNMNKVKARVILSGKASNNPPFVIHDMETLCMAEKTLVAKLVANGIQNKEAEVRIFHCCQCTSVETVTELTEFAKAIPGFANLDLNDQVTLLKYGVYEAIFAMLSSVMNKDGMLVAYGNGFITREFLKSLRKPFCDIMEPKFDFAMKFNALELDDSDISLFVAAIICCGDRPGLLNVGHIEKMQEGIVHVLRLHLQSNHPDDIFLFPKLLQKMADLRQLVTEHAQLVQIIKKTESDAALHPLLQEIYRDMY
The assay can be described thus: In vitro binding affinity towards human peroxisome proliferator activated receptor alpha (PPAR alpha).

The target of assay [3] is T3, Peroxisome proliferator-activated receptor delta (Homo sapiens, UniProt Q03181).
T3 sequence (Q03181 whole entry): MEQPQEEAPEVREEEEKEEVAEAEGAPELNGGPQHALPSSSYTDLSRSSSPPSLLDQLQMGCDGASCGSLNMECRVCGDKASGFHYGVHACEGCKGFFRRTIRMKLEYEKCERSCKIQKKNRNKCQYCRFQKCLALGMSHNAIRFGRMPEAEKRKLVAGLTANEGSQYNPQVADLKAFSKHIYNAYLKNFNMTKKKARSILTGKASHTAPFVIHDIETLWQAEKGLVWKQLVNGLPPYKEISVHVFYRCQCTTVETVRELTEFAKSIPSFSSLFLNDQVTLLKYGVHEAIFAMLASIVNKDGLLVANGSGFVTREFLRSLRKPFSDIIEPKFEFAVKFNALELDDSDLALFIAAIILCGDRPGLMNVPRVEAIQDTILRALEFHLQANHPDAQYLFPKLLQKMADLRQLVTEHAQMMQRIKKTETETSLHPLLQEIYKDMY
Description: In vitro binding affinity towards human peroxisome proliferator activated receptor delta (PPAR delta)

Assay [4] deals with T1, Peroxisome proliferator-activated receptor gamma. The assay can be described thus: Agonistic activity was determined in COS1 cells transfected with GAL 4-PPAR gamma receptor. It counts as functional, cell-based, COS-1.
Assay [5] addresses T2, Peroxisome proliferator-activated receptor alpha. The assay can be described thus: Agonistic activity was determined in COS1 cells transfected with GAL 4-PPAR alpha receptor. It counts as functional, cell-based, COS-1.
Assay [6] addresses T3, Peroxisome proliferator-activated receptor delta. The assay can be described thus: Agonistic activity was determined in COS1 cells transfected with GAL 4-PPAR delta receptor. It counts as functional, cell-based, COS-1.
Assay [7] addresses T4, Peroxisome proliferator-activated receptor gamma (Homo sapiens) (UniProt P37231).
T4 sequence (whole entry): T1 sequence (P37231 whole entry)
The assay can be described thus: Agonistic transcriptional activity in COS1 cells expressing GAL 4-PPAR gamma at 3 uM; Maximal percent. Format: functional, cell-based. Particulars: COS-1.

The target in assay [8] is T5, Peroxisome proliferator-activated receptor alpha (Homo sapiens) (UniProt Q07869).
T5 sequence (whole entry): T2 sequence (Q07869 whole entry)
The assay can be described thus: Agonistic transcriptional activity in COS1 cells expressing GAL 4-PPAR alpha at 3 uM; Maximal percent. It counts as functional, cell-based. Particulars: COS-1.

In general, Ki refers to a measure of affinity in units of concentration, obtained from inhibition or displacement. A lower Ki goes with higher affinity. Take `CCCc1c(OCCCOc2cccc(CCC(=O)O)c2)ccc2c(-c3ccccc3)noc12`: the figures for the Ki in assay [1], in assay [2] and in assay [3] were 448 nM, 53 nM and 21 nM, respectively.

As a reminder, the EC50 is the midpoint of the concentration-response curve. Higher therefore signals weaker potency. As for `CCCc1c(OCCCCOc2ccc(C(C)(C)CC(=O)O)cc2)ccc2c(-c3ccccc3)noc12`, the results for the Ki in assay [1], in assay [2] and in assay [3] were 52 nM, 213 nM and 529 nM, respectively. Moreover, the EC50 was found to be 37 nM in assay [4] and 53 nM in assay [5].

For `CCCc1c(OCCCCOc2cccc(CCC(=O)O)c2)ccc2c(-c3ccccc3)noc12`, the Ki worked out at 115 nM in assay [1], 329 nM in assay [2] and 52 nM in assay [3].

Take `CCCc1c(OCCCCOc2ccc(CC(C)(C)C(=O)O)cc2)ccc2c(-c3ccccc3)noc12`: the Ki in assay [1] was found to be 20 nM; in assay [2], 13 nM; in assay [3] it was 317 nM. Further, the figures for the EC50 in assay [4], in assay [6] and in assay [5] were 20 nM, 860 nM and 4 nM, respectively.

Consider `CCCc1c(OCCCCOc2ccc(/C=C/C(=O)O)cc2)ccc2c(-c3ccccc3)noc12`, for which the results for the Ki in assay [1], in assay [2] and in assay [3] were 13 nM, 18 nM and 265 nM, respectively. Besides, the EC50 in assay [4] was 29 nM; in assay [6], 640 nM; in assay [5] it was 13 nM.

In the case of `CCCc1c(OCCCSc2ccc(CC(=O)O)cc2Cl)ccc2c(-c3ccccc3)noc12`, the Ki in assay [1] came out at 11 nM; in assay [2], 14 nM; in assay [3], 3.7 nM. For the same compound, the values for the EC50 in assay [4], in assay [6] and in assay [5] were 4 nM, 3 nM and 3 nM, respectively.

`CCCc1c(OCCCCOc2ccc(OC(C)(C)C(=O)O)cc2)ccc2c(-c3ccccc3)noc12`: the Ki stood at 2.4 nM in assay [1] and 23 nM in assay [3]. Moreover, the EC50 was 2 nM in assay [4] and 172 nM in assay [6].

As to `CCCc1c(OCCCOc2ccccc2CC(=O)O)ccc2c(-c3ccccc3)noc12`, the Ki in assay [1] worked out at 498 nM; in assay [2], 489 nM; in assay [3] it was 62 nM.

For the compound `CCCc1c(OCCCCOc2cccc(OC(C)(C)C(=O)O)c2)ccc2c(-c3ccccc3)noc12`, the Ki in assay [1] is 41 nM; in assay [2] it was 255 nM; in assay [3], 110 nM. The EC50 in assay [4] worked out at 100 nM; in assay [5], 92 nM.

As to `CCCc1c(OCCOc2ccc(CCCC(=O)O)cc2)ccc2c(-c3ccccc3)noc12`, the results for the Ki in assay [1], in assay [2] and in assay [3] were 616 nM, 305 nM and 156 nM, respectively. Besides, the Emax (% of standard agonist) in assay [7] was 72%. The same compound showed an EC50 in assay [5] of 33 nM.

`CCCc1c(OCCCOc2ccc(OCC(=O)O)cc2)ccc2c(-c3ccccc3)noc12`: the Ki in assay [1] is 34 nM; in assay [2] it was 8.1 nM; in assay [3], 3.7 nM. For the same compound, the EC50 came out at 75 nM in assay [4], 16 nM in assay [6] and 4 nM in assay [5].

Take `CCCc1c(OCCCCOc2cccc(C(C)(C)C(=O)O)c2)ccc2c(-c3ccccc3)noc12`: the figures for the Ki in assay [1], in assay [2] and in assay [3] were 26 nM, 46 nM and 165 nM, respectively. Besides, the EC50 in assay [4] worked out at 52 nM; in assay [6], 400 nM; in assay [5] it was 50 nM.

Take `CCCc1c(OCCCCOc2ccc(C(=O)O)cc2)ccc2c(-c3ccccc3)noc12`: the figures for the Ki in assay [1], in assay [2] and in assay [3] were greater than 5300 nM, 920 nM and greater than 14000 nM, respectively.

For `CCCc1c(OCCCOc2ccc(CC(=O)O)cc2)ccc2c(-c3ccccc3)noc12`, the EC50 in assay [4] stood at 194 nM; in assay [6], 147 nM; in assay [5], 3 nM. Also, the Ki in assay [2] came to 3 nM; in assay [3], 5 nM.

As to `CCCc1c(OCCCCOc2ccc(CC(=O)O)cc2)ccc2c(-c3ccccc3)noc12`, the Ki was determined as 30 nM in assay [1], 7 nM in assay [2] and 93 nM in assay [3]. For the same compound, the figures for the EC50 in assay [4] and in assay [5] were 60 nM and 8 nM, respectively.

For the compound `CCCc1c(OCCCCOc2cccc(C(=O)O)c2)ccc2c(-c3ccccc3)noc12`, the Ki stood at 100 nM in assay [1], 5.2 nM in assay [2] and 508 nM in assay [3]. For the same compound, the EC50 in assay [4] stood at 193 nM; in assay [5], 8 nM.

Turning to `CCCc1c(OCCCOc2ccc(CCC(=O)O)cc2)ccc2c(-c3ccccc3)noc12`, the Ki in assay [1] amounted to 32 nM; in assay [2] it was 7.3 nM; in assay [3], 2 nM. Further, in assay [7], the Emax (% of standard agonist) amounted to 99%. For the same compound, in assay [8], the activation was 42%.

Take `CCCc1c(OCCCCOc2ccccc2CC(=O)O)ccc2c(-c3ccccc3)noc12`: the Ki in assay [1] turned out to be 348 nM; in assay [2], 86 nM; in assay [3] it was 47 nM.

Consider `CCCc1c(OCCCOc2ccc(OC(C)C(=O)O)cc2)ccc2c(-c3ccccc3)noc12` (stereo unspecified), for which the Ki in assay [1] was determined as 22 nM; in assay [2] it was 9.3 nM; in assay [3], 4.6 nM. For the same compound, the EC50 was 27 nM in assay [4], 13 nM in assay [6] and 2 nM in assay [5].

In the case of `CCCc1c(OCCCOc2ccc(CCCC(=O)O)cc2)ccc2c(-c3ccccc3)noc12`, the values for the Ki in assay [1], in assay [2] and in assay [3] were 145 nM, 121 nM and 38 nM, respectively. Besides, the values for the EC50 in assay [4], in assay [6] and in assay [5] were 156 nM, 183 nM and 3 nM, respectively.

Turning to `CCCc1c(OCCCOc2cccc(CC(=O)O)c2)ccc2c(-c3ccccc3)noc12`, the Ki in assay [1] amounted to 662 nM; in assay [2], 76 nM; in assay [3], 26 nM.

Take `CCCc1c(OCCCCOc2cccc(OCC(=O)O)c2)ccc2c(-c3ccccc3)noc12`: the Ki in assay [1] is 52 nM; in assay [2], 133 nM; in assay [3] it was 47 nM. The results for the EC50 in assay [4] and in assay [5] were 87 nM and 248 nM, respectively.

With `CCCc1c(OCCCCOc2ccc(C(C)(C)C(=O)O)cc2)ccc2c(-c3ccccc3)noc12`, the values for the Ki in assay [1], in assay [2] and in assay [3] were 17 nM, 23 nM and 203 nM, respectively. Moreover, the EC50 came out at 10 nM in assay [4] and 2 nM in assay [5].

With `CCCc1c(OCCCOc2ccccc2CCC(=O)O)ccc2c(-c3ccccc3)noc12`, the Ki was 1330 nM in assay [1], greater than 33300 nM in assay [2] and 3520 nM in assay [3].

In the case of `CCCc1c(OCCCCOc2ccc(OC(C)C(=O)O)cc2)ccc2c(-c3ccccc3)noc12` (stereo unspecified), the Ki in assay [1] is 20 nM; in assay [2], 47 nM; in assay [3] it was 136 nM. In addition, the figures for the EC50 in assay [4] and in assay [5] were 16 nM and 2 nM, respectively.

In the case of `CCCc1c(OCCCOc2ccc(/C=C/C(=O)O)cc2)ccc2c(-c3ccccc3)noc12`, the Ki came out at 152 nM in assay [1], 50 nM in assay [2] and 18 nM in assay [3]. Besides, the figures for the EC50 in assay [4] and in assay [6] were 254 nM and 148 nM, respectively. In assay [8], this compound had an activation of 56%.

`CN(CCOc1ccc(CC2SC(=O)NC2=O)cc1)c1ccccn1` (stereo unspecified) yielded an activation in assay [8] of 3%.

As to `CCCc1c(OCCCCOc2ccc(CCC(=O)O)cc2)ccc2c(-c3ccccc3)noc12`, the Ki is 8.9 nM in assay [1], 7.6 nM in assay [2] and 37.5 nM in assay [3]. The EC50 in assay [4] worked out at 485 nM; in assay [5] it was 429 nM.

Take `CCCc1c(OCCOc2ccc(CCC(=O)O)cc2)ccc2c(-c3ccccc3)noc12`: the Ki in assay [1] amounted to 304 nM; in assay [3], 11 nM.
